Where a SMILES comes first, the peptide text is derived from it. Bridges are numbered along the chain shown (N, C = ends). [ ]: non-standard residue; d: D form. The star is where a group is joined. hPhe(3-Cl-4-CF3) = N[C@@H](CCc1ccc(C(F)(F)F)c(Cl)c1)C(=O)O; NPrPhe(4-CF3) = CCCN[C@@H](Cc1ccc(C(F)(F)F)cc1)C(=O)O; NMeGly(cPent) = CN[C@H](C(=O)O)C1CCCC1; NMeD = CN[C@@H](CC(=O)O)C(=O)O; NMeL = CN[C@@H](CC(C)C)C(=O)O; Azetidin(1-yl) = C1CN(*)C1; NMeA = CN[C@@H](C)C(=O)O; Ac5c = NC1(C(=O)O)CCCC1; Aze = O=C(O)[C@@H]1CCN1; Sar = CNCC(=O)O
Columns and labels:
[1] = target: GDP-bound NRAS wild-type protein (Homo sapiens, UniProt P01111); experiment: Binding to NRAS by surface plasmon resonance (SPR), KD and KD ratio to KRAS
Summary of the method: (§1)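 Biotinylated GDP-bound RAS was captured at about 100–300 RU. Running buffer: HBS pH 7.4, 10 mM MgCl2, 10 µM GDP, 1 mM DTT, 0.01% Tween 20, 4% DMSO.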

[2] = target: HRAS wild-type protein (Homo sapiens, UniProt P01112); experiment: Binding to HRAS by surface plasmon resonance (SPR), KD and KD ratio to KRAS
Summary of the method: as §1

[3] = test system: human lung cancer strain NCI-H441; assay type: cell-based
Summary of the method: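 Step one: dispense the test compound in serial DMSO dilutions. Step three: add the reagent and measure […].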

[4] = ratio of KD value for GDP-bound NRAS wild-type protein to KD value for KRAS (SPR)
[5] = ratio of KD value for HRAS wild-type protein to KD value for KRAS (SPR)
[6] = ratio of KD for GDP-bound NRAS wild-type protein to KD for KRAS
[7] = ratio of KD for HRAS wild-type protein to KD for KRAS

Chain of HRAS wild-type protein (P01112 whole entry): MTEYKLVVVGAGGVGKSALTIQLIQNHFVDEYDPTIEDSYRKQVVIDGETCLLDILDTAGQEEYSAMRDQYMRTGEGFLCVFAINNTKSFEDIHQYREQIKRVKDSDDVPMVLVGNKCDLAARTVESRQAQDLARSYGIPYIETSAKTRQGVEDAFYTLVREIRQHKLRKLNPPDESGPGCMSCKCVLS
Chain of GDP-bound NRAS wild-type protein (P01111 whole entry): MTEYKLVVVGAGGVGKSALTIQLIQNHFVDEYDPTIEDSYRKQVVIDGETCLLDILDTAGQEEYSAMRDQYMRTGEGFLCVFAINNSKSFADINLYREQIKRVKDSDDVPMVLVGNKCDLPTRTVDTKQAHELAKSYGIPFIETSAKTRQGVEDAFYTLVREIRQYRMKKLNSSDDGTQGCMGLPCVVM

SMILES | IC50 [3] | NRAS /KRAS [1, 4] | HRAS /KRAS [2, 5] | NRAS /KRAS [1, 6] | HRAS /KRAS [2, 7]
CCO[C@@H]1C[C@H]2C(=O)NC3(CC(C)(C)C3)C(=O)N(C)[C@@H](C3CCCC3)C(=O)N(C)[C@H](C(=O)N(C)C)CC(=O)N(C)[C@@H](CC)C(=O)N[C@@H]([C@@H](C)CC)C(=O)N(C)CC(=O)N(C)[C@H]3C/C=C\CCN(C3=O)[C@@H](Cc3ccc(C)cc3)C(=O)N(C)CC(=O)N[C@@H](CCc3ccc(C(F)(F)F)c(OC)c3)C(=O)N2C1 [PP1873] | 8.5 nM | A (a compound having 10 or more and less than 20 is denoted as A) | B (a compound having 3 or more and less than 10 is denoted as B) |  | 
CCC[C@H]1C(=O)N[C@@H]([C@@H](C)CC)C(=O)N(C2CC2)CC(=O)N(C)[C@H]2C/C=C\CCN(C2=O)[C@@H](Cc2ccc(C)cc2)C(=O)N(C)CC(=O)N[C@@H](CCc2cc(F)c3c(c2)OCC3)C(=O)N2C[C@H](OCC)C[C@H]2C(=O)NC2(CC(C)(C)C2)C(=O)N(C)[C@@H](C2CCCC2)C(=O)N(C)[C@H](C(=O)N(C)C)CC(=O)N1C [PP2880] | 127 nM |  |  | A (a compound having 10 or more and less than 20 is denoted as A) | A (a compound having 10 or more and less than 20 is denoted as A)
CCCN1C(=O)[C@@H]2CCN2C(=O)[C@H](C)N(C)C(=O)[C@H]([C@@H](C)CC)NC(=O)[C@H](CC(C)C)N(C)C(=O)C[C@@H](C(=O)N2CCC2)N(C)C(=O)[C@H](C2CCCC2)N(C)C(=O)C2(CCCC2)NC(=O)[C@@H]2CCCN2C(=O)[C@H](CCc2ccc(C(F)(F)F)c(Cl)c2)NC(=O)CN(C)C(=O)[C@@H]1Cc1ccc(C(F)(F)F)cc1 [PP0181] ([NMeL]I[NMeA][Aze][NPrPhe(4-CF3)][Sar][hPhe(3-Cl-4-CF3)]P[Ac5c][NMeGly(cPent)][NMeD]-{Azetidin(1-yl)}; lactam N-11) | 1.5 nM |  |  | C (A compound having a KD ratio of 0.1 or more and less than 3 is denoted as C) | B (a compound having 3 or more and less than 10 is denoted as B)
CC[C@H](C)[C@@H]1NC(=O)[C@H](CC(C)C)N(C)C(=O)C[C@@H](C(=O)N(C)C)N(C)C(=O)[C@H](C2CCCC2)N(C)C(=O)C2(CCC2)NC(=O)[C@@H]2C[C@@H](C)CN2C(=O)[C@H](CCc2ccc(C(F)(F)F)c(OC)c2)NC(=O)CN(C)C(=O)[C@H](Cc2ccc(C)cc2)N2CC/C=C\C[C@@H](C2=O)N(C)C(=O)CN(C)C1=O [PP1867] | 47.8 nM | A (a compound having 10 or more and less than 20 is denoted as A) | B (a compound having 3 or more and less than 10 is denoted as B) |  | 

Further lines, with some results ahead:

IC50 [3] | SMILES | NRAS /KRAS [1, 4] | HRAS /KRAS [2, 5] | NRAS /KRAS [1, 6] | HRAS /KRAS [2, 7]
4.9 nM | C=CC[C@H]1C(=O)N[C@@H]([C@@H](C)CC)C(=O)N(C)CC(=O)N(C)[C@H]2CCCCN(C2=O)[C@@H](Cc2ccc(C(F)(F)F)cc2)C(=O)N(C)CC(=O)N[C@@H](CCc2cc(F)c(C(F)(F)F)c(F)c2)C(=O)N2C[C@H](OCC)C[C@H]2C(=O)N[C@](C)(CC=C)C(=O)N(C)[C@@H](C2CCCC2)C(=O)N(C)[C@H](C(=O)N2CCOCC2)CC(=O)N1C [PP0874] |  |  | C (A compound having a KD ratio of 0.1 or more and less than 3 is denoted as C) | B (a compound having 3 or more and less than 10 is denoted as B)
23.2 nM | CCO[C@@H]1C[C@H]2C(=O)NC3(CCC3)C(=O)N(C)[C@@H](C3CCCC3)C(=O)N(C)[C@H](C(=O)N(C)C)CC(=O)N(C)[C@@H](CC(C)C)C(=O)N[C@@H]([C@@H](C)CC)C(=O)N(C)CC(=O)N(C)[C@H]3C/C=C\CCN(C3=O)[C@@H](Cc3ccc(F)cc3)C(=O)N(C)CC(=O)N[C@@H](CCc3cc(F)c(C(F)(F)F)c(F)c3)C(=O)N2C1 [PP1488] | A (a compound having 10 or more and less than 20 is denoted as A) | B (a compound having 3 or more and less than 10 is denoted as B) |  | 
2.3 nM | CCO[C@@H]1C[C@H]2C(=O)NC3(CC(C)(C)C3)C(=O)N(C)[C@@H](C3CCCC3)C(=O)N(C)[C@H](C(=O)N(C)C)CC(=O)N(C)[C@@H](CC(F)F)C(=O)N[C@@H]([C@@H](C)CC)C(=O)N(C)CC(=O)N(C)[C@H]3C/C=C\CCN(C3=O)[C@@H](Cc3ccc(C(F)(F)F)cc3)C(=O)N(C)CC(=O)N[C@@H](CCc3ccc(C(F)(F)F)c(Cl)c3)C(=O)N2C1 [PP1747] | A (a compound having 10 or more and less than 20 is denoted as A) | A (a compound having 10 or more and less than 20 is denoted as A) |  | 
2.9 nM | CCC[C@H]1C(=O)N[C@@H]([C@@H](C)CC)C(=O)N(C)CC(=O)N(C)[C@H]2C/C=C\CCN(C2=O)[C@@H](Cc2ccc(C)cc2)C(=O)N(C)CC(=O)N[C@@H](CCc2ccc(C(F)(F)F)c(OC)c2)C(=O)N2C[C@H](OCC)C[C@H]2C(=O)N(C)C2(CCC2)C(=O)N(C)[C@@H](C2CCCC2)C(=O)N(C)[C@H](C(=O)N2CCCC2)CC(=O)N1C [PP3106] |  |  | A (a compound having 10 or more and less than 20 is denoted as A) | A (a compound having 10 or more and less than 20 is denoted as A)

— patent publication EP4603105A1, “PHARMACEUTICAL COMPOSITION CONTAINING CYCLIC COMPOUND HAVING SELECTIVE KRAS INHIBITORY EFFECT AGAINST HRAS AND NRAS” (CHUGAI SEIYAKU KABUSHIKI KAISHA, priority 2022, dated 2024)
